Reference: article PMC6096483, “Structural studies of the unusual metal-ion site of the GH124 endoglucanase from Ruminiclostridium thermocellum” (Acta Crystallographica. Section F, Structural Biology …, 2018)

Biological target: T1, RtGH124 (GH124 endoglucanase GH124A) (Acetivibrio thermocellus, UniProt A3DCJ4)
T1 construct: gene Cthe_0435; GH124 catalytic domain without dockerin; E. coli BL21(DE3)pLysS; N-terminal His6-3C tag cleaved, leaving GPA before […]; ends ...DRSNPWEIYY; 25304 Da calculated; His264 partially 2-oxohistidine
T1 sequence (A3DCJ4 entry or part of it): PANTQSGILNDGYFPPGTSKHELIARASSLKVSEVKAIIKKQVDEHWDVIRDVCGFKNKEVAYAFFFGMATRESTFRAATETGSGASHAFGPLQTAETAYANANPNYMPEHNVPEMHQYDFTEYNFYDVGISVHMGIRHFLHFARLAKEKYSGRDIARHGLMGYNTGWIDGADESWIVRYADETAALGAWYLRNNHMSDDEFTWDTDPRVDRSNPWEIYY
Assay: X-ray crystallography (co-crystallization, […] A)
Assay type: binding
Settings: active site, two cellotrioses on either side of catalytic Glu203; Mn2+ at distant metal site; Tacsimate pH 5.0; 6.7 mM ligand

Structure (SMILES): OC[C@H]1O[C@@H](O[C@H]2[C@H](O)[C@@H](O)[C@H](O[C@H]3[C@H](O)[C@@H](O)C(O)O[C@@H]3CO)O[C@@H]2CO)[C@H](O)[C@@H](O)[C@@H]1O (stereo partly shown) [G3, cellotriose]
- X-ray crystallography (co-crystallization, 1.03 A): Structures of RtGH124 co-crystallized with cellotriose (G3) showed an active site with two cellotrioses
